One data set has as its system kinases. The data set is described as follows: KinomeScan selectivity scores / number of hits. The format is binding. The method, then: These assays may be conducted by DiscoverX (formerly Ambit; San Diego, Calif.). The percentage inhibition produced by incubation with a test compound may be calculated relative to the non-inhibited control.
The target of the next data set is Syk (Homo sapiens (Human), UniProt P43405). The data set is described as follows: Syk enzyme inhibition (FRET). The format is biochemical. The procedure, abridged:
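Z-LYTE FRET peptide assay: c-Src (3000 ng/mL) or Syk (2000 ng/mL) preincubated 2 h at room temperature with compound (4–0.004 μg/mL working solutions). Reaction was 1 h with peptide (8 μM solution) and ATP (800 μM c-Src, 60 μM Syk solutions), followed by 1 h protease development. Phosphorylation was read as the coumarin/fluorescein emission ratio.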

The subject of data set [1] is PBMCs. The data set can be described thus: (b) LPS-induced TNFα/IL-8 release in PBMC cells. The format is cell-based. The following applies: Homo sapiens.
For the next data set, the system named is HT29 cells. The data set can be described thus: (d) IL-1β-induced IL-8 release in HT29 cells. The format is cell-based. The following applies: Homo sapiens, HT-29, read-out: IC50 for Inhibition of Cytokine Release, IL-8. Here is the method: HT29 cells, a human colon adenocarcinoma cell line, are plated in a 96 well plate (24 hrs) and pre-treated with compounds at the desired concentration for 2 hours before addition of 5 ng/ml of IL-1β (Abeam) for 24 hours. Supernatants are harvested for IL-8 quantification by Sandwich ELISA (Duo-set, R&D System). The IC50 is determined from the dose response curve.

For a further data set, the system named is primary macrophages. The data set can be described thus: (e) LPS-induced cytokine release in primary macrophages. The format is cell-based. The following applies: Homo sapiens, Primary macrophage, assay (e). The method, then:
PBMCs from healthy subjects are separated from whole blood using a density gradient (Lymphoprep, Axis-Shield Healthcare). Cells are incubated for 2 hrs and non-adherent cells removed by washing. To differentiate the cells to macrophages the cells are incubated with 5 ng/ml of GM-CSF (Peprotech) for 7 days under normal tissue culture conditions. Compounds are then added to the cells at the desired concentration for a 2 hour pre-treatment before stimulation with 10 ng/ml LPS for 24 hours. […] The IC50 is determined from the dose response curve.

Data set [2] concerns PBMCs. The data set is described as follows: (i) Cell mitosis assay in PBMCs. The format is cell-based. The following applies: Homo sapiens, PBMC, 5 μg/mL. Here is the method:
PBMCs from healthy subjects are separated from whole blood (Quintiles, London, UK) using a density gradient (Histopaque®-1077, Sigma-Aldrich, Poole, UK). The PBMCs (3 million cells per sample) are subsequently treated with 2% PHA (Sigma-Aldrich, Poole, UK) for 48 hr, followed by a 20 hr exposure to varying concentrations of test compounds. At 2 hr before collection, PBMCs are treated with demecolcine (0.1 μg/mL; Invitrogen, Paisley, UK) to arrest cells in metaphase. […] Fluorescence is observed using an ATTUNE flow cytometer (Invitrogen, Paisley, UK), gating for lymphocytes.

Data set [3] in a line: Plasma pharmacokinetics in beagle dogs. The format is in vivo, male beagle dogs. Conditions: Dog. Here is the method:
Blood samples (approximately 1.5 mL) were collected from jugular vein such that the samples were obtained at pre-dose, 0.25, 0.5, 1, 2, 4, 6, 8, and 24 hr (p.o.) and pre-dose, 0.08, 0.25, 0.5, 1, 2, 4, 8, 12, 24 and 32 hr (i.v.) post dose. The blood samples were collected from a set of three dogs at each time point in labelled micro centrifuge tube containing K2EDTA as anticoagulant. Plasma samples were separated by centrifugation at 2500 g for 10 min of whole blood and stored below −70° C. until bioanalysis. All samples were processed for analysis by protein precipitation using acetonitrile and analyzed with LC-MS/MS method (LLOQ=0.50 ng/mL). Pharmacokinetic parameters were calculated using the non-compartmental analysis tool of Phoenix WinNonlin® (Version 6.3).

A short description of data set [4]: Cryopreserved hepatocyte stability, dog. The format is in vitro ADME. Conditions: pooled cryopreserved hepatocytes, read-out: Mean intrinsic clearance. Here is the method: (§1) Formulae Clint(tissue clearance) mL/min/kg=[0.693/t½ (min)]×[1/microsomal protein concentration mg/mL]×[mg microsomes/g liver]×[g liver/kg body weight] […] The incubations were performed at 37° C. with 100 μL, samples taken from the incubation, at 0, 10, 20, 45 and 90 minutes, and reactions terminated by addition of 100 μL of acetonitrile containing carbamazepine as analytical internal standard. […] Half-life values were calculated from the relationship T1/2 (min)=−0.693/λ • where λ was the slope of the Ln concentration vs time curve. • Standard compounds testosterone, midazolam and 4-methylumbelliferone are included in the assay design.
(§2) Clint(Tissue Clearance) mL/min/kg=[0.693/t½(min)]×[1/hepatocyte concentration (million cells/mL)]×[million cells/g liver]×[g liver/kg body weight] Clint(Hepatic clearance) mL/min/kg=hepatic blood flow×Clint/(hepatic blood flow+Clint) Hepatic extraction ratio(Eh)=Clint(Hepatic clearance) mL/min/kg/hepatic blood flow (mL/min/kg)

Data set [5] can be described thus: Cryopreserved hepatocyte stability, rat. The format is in vitro ADME. The following applies: pooled cryopreserved hepatocytes, read-out: Mean intrinsic clearance. The method, then:
as §1, §2

[6] abbreviates: male, beagle, plasma, 0.05 mg/kg intravenous.

Like-named read-outs stand apart in the source and are kept apart here.

In the case of `C#Cc1cc(Nc2nccc(Oc3ccc(NC(=O)Nc4cc(C(C)(C)C)nn4-c4ccc(C)cc4)c4ccccc34)n2)cc(C(=O)NCCOCCOCCOC)c1` [Example 2, 3-((4-((4-(3-(3-(tert-Butyl)-1-(p-tolyl)-1H-pyrazol-5-yl)ureido)naphthalen-1-yl)oxy)pyrimidin-2-yl)amino)-5-ethynyl-N-(2-(2-(2-methoxyethoxy)ethoxy)ethyl)-benzamide], the results for the “KinomeScan S(1) number of hits” value in the data set on kinases (50 nM) and in the data set on kinases (500 nM) were 0 and 4, respectively. Besides, the “KinomeScan S(10) number of hits” value stood at 8 with kinases (50 nM) and 39 with kinases (500 nM). Also, the “KinomeScan S(35) number of hits” value in the data set with kinases (50 nM) came out at 32; in the data set with kinases (500 nM), 92. Also, the IC50 (commonly the point on the concentration scale where inhibition reaches its midpoint) amounted to 50 nM against Syk; 2 nM in the data set on PBMCs [1] (read-out: IC50 for Inhibition of Cytokine Release, IL-8); 0.7 nM in the data set on PBMCs [1] (read-out: IC50 for Inhibition of Cytokine Release, TNFα); 3.3 nM in the data set on HT29 cells; 2.8 nM with primary macrophages (read-out: IC50 for inhibition of release of IL-6); 2.1 nM in the data set on primary macrophages (read-out: IC50 for inhibition of release of IL-8). Also, the inhibition (usually the share of the control response that was lost under treatment) at 5 µg/mL in the data set on PBMCs [2] stood at 18.7%. In data set [3] (1 mg/kg p.o., Plasma), this molecule registered a Fpo of 0%. The AUC(0-inf) – broadly, the area under the concentration-time curve extrapolated to infinity – in [3] (setting [6]) amounted to 223 ± 92 ng·h/mL. For the same molecule, the AUC(0-t) (commonly the area under the concentration-time curve up to a stated or last time point) in [3] (setting [6]) amounted to 218 ± 90 ng·h/mL. For the same molecule, in data set [3] (setting [6]), the C0 worked out at 1370 ng/mL. Moreover, the Vd (usually a proportionality between amount in the body and measured concentration, not a real space) in data set [3] (setting [6]) was 0.2 ± 0.1 L/kg. Moreover, the clearance (as a rule, the rate of elimination divided by the concentration) in data set [3] (setting [6]) was 4.1 ± 1.4 mL/min/kg. In addition, the half-life (in general, how long it takes for the measured level to halve) in data set [3] (setting [6]) is 1.9 ± 0.4 h. Further, the hepatocyte CLint at 0.1 μM is 46 µL/min/1e6 cells in [4] and 49 µL/min/1e6 cells in [5].

The record behind these values is patent publication US10301288B2, “Kinase inhibitors” (Topivert Pharma Limited, priority 2013, dated 2019).
